Assay results: ChEMBL document CHEMBL1201862, “PubChem BioAssay data set” (2004)
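96-well plates; 48 h exposure; 5 concentrations. Endpoints by linear interpolation between flanking doses. Not reached: highest tested concentration assigned. At the GI50, growth is halved.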 Activity calls are given as the source filed them. Cut-off read from the data, not from the text of the source: active = GI50 up to about 1.1 µM and inactive = higher.

What was measured:
Experiment in all cases: NCI anticancer screen, dose series, 48 h
[1] = system: 786-0
[2] = system: A549
[3] = system: CAKI-1
[4] = system: CCRF-CEM
[5] = system: COLO 205
[6] = system: DU-145
[7] = system: EKVX
[8] = system: HCC 2998
[9] = system: HCT-15
[10] = system: HL-60
[11] = system: HOP-62
[12] = system: HOP-92
[13] = system: HT-29
[14] = system: IGROV-1
[15] = system: K562
[16] = system: KM12
[17] = system: LOX IMVI
[18] = system: M14
[19] = system: MCF7
[20] = system: MDA-MB-231
[21] = system: MDA-MB-435
[22] = system: MOLT-4
[23] = system: Malme-3M
[24] = system: NCI-H23
[25] = system: OVCAR-4
[26] = system: OVCAR-8
[27] = system: PC-3
[28] = system: RPMI-8226
[29] = system: RXF 393
[30] = system: SF-268
[31] = system: SF-295
[32] = system: SK-MEL-28
[33] = system: SK-MEL-5
[34] = system: SK-OV-3
[35] = system: SN12C
[36] = system: SNB-75
[37] = system: SR
[38] = system: SW-620
[39] = system: T47D
[40] = system: TK-10
[41] = system: UACC-257
[42] = system: UACC-62
[43] = system: A498
[44] = system: ACHN
[45] = system: BT-549
[46] = system: HCT-116
[47] = system: MDA-N
[48] = system: NCI-H226
[49] = system: NCI-H460
[50] = system: NCI/ADR-RES
[51] = system: OVCAR-3
[52] = system: OVCAR-5
[53] = system: SF-539
[54] = system: SK-MEL-2
[55] = system: SNB-19
[56] = system: U-251
[57] = system: UO-31
[58] = system: NCI-H522

Measured: GI50

CCC(=O)OC1=C(c2ccccc2)Sc2ccc(Cl)cc2-n2cccc21
inactive: [1] > 10 µM | [2] > 10 µM | [3] > 10 µM | [4] 8.89 µM | [5] > 10 µM | [6] > 10 µM | [7] > 10 µM | [8] > 10 µM | [10] 3.95 µM | [11] > 10 µM | [12] 5.78 µM | [13] 3.78 µM | [14] > 10 µM | [15] 5.75 µM | [16] 9.04 µM | [17] 8.65 µM | [18] > 10 µM | [19] 7.21 µM | [20] 4.47 µM | [21] 2.22 µM | [22] 7.71 µM | [23] > 10 µM | [24] 8.2 µM | [25] > 10 µM | [26] > 10 µM | [27] > 10 µM | [28] 4.45 µM | [29] 3.24 µM | [30] > 10 µM | [31] 9.62 µM | [32] > 10 µM | [33] > 10 µM | [34] > 10 µM | [35] 5.05 µM | [36] > 10 µM | [37] 7.52 µM | [38] 7.67 µM | [39] > 10 µM | [40] > 10 µM | [41] > 10 µM | [42] 8.73 µM
4.69 µM: [9]

O=C(c1ccc(Cl)cc1Cl)N1CCN(C(=O)c2ccc(Cl)cc2Cl)C1=S
inactive: [28] 12.9 µM

C=Cc1nc2nnc(CCCCCCCCc3nnc4nc(C=C)[nH]n34)n2[nH]1
inactive: [1] 80.9 µM | [43] 40.7 µM | [2] 51.8 µM | [44] > 100 µM | [45] > 100 µM | [3] > 100 µM | [4] > 100 µM | [5] > 100 µM | [6] > 100 µM | [7] 61.5 µM | [8] 75.3 µM | [46] 47.2 µM | [10] 34 µM | [11] > 100 µM | [13] > 100 µM | [14] > 100 µM | [15] 21.6 µM | [16] > 100 µM | [17] 93.5 µM | [18] > 100 µM | [19] 80.7 µM | [20] 95.5 µM | [21] > 100 µM | [47] > 100 µM | [22] 47.4 µM | [23] 58.7 µM | [48] > 100 µM | [24] 67.8 µM | [49] 57.8 µM | [50] 63.1 µM | [51] > 100 µM | [25] 83.9 µM | [52] > 100 µM | [26] 83.8 µM | [27] > 100 µM | [29] > 100 µM | [30] > 100 µM | [31] 62.5 µM | [53] > 100 µM | [32] > 100 µM | [54] > 100 µM | [33] 41.6 µM | [34] > 100 µM | [35] > 100 µM | [55] > 100 µM | [36] > 100 µM | [38] > 100 µM | [40] > 100 µM | [56] 30.7 µM | [41] 31.4 µM | [57] > 100 µM
> 100 µM: [9]

COc1c2cc(C(C)(C)C)cc1Cc1cccc(c1O)Cc1cc(C(C)(C)C)cc(c1OC)Cc1cccc(c1O)Cc1cc(C(C)(C)C)cc(c1OC)Cc1cccc(c1O)C2
> 100 µM: [9]
inactive: [1] > 100 µM | [43] > 100 µM | [2] > 100 µM | [44] > 100 µM | [3] > 100 µM | [4] > 10 µM | [5] > 100 µM | [6] > 100 µM | [7] > 100 µM | [8] > 100 µM | [46] > 100 µM | [10] > 100 µM | [11] > 100 µM | [12] > 100 µM | [13] > 100 µM | [15] > 100 µM | [16] > 100 µM | [18] 55.6 µM | [19] > 100 µM | [20] > 100 µM | [21] > 100 µM | [47] > 100 µM | [22] > 100 µM | [23] > 100 µM | [24] > 10 µM | [49] > 100 µM | [58] > 100 µM | [50] > 100 µM | [51] > 100 µM | [52] > 100 µM | [26] > 100 µM | [27] > 100 µM | [28] > 100 µM | [29] > 100 µM | [30] > 100 µM | [31] > 100 µM | [53] > 100 µM | [32] > 100 µM | [54] > 100 µM | [33] > 100 µM | [35] > 100 µM | [55] > 100 µM | [36] > 100 µM | [37] > 100 µM | [38] > 100 µM | [39] > 100 µM | [56] > 100 µM | [41] 96.6 µM | [42] > 100 µM | [57] > 100 µM

CO[C@](C(=O)OC[C@H]1[C@@H](COC(C)=O)[C@@H]2O[C@H]1c1cc3c(cc12)OCO3)(c1ccccc1)C(F)(F)F
inactive: [43] 28.5 µM | [2] 17.5 µM | [45] 22.9 µM | [3] 32.8 µM | [4] 7.19 µM | [5] 28.6 µM | [6] 34.9 µM | [7] 27 µM | [8] 23.8 µM | [46] 13.6 µM | [11] 26.2 µM | [12] 34 µM | [13] 39.2 µM | [14] 12.7 µM | [16] 14.2 µM | [18] 35.9 µM | [20] 30.8 µM | [21] 38.5 µM | [47] 38.3 µM | [22] 19.4 µM | [23] > 100 µM | [24] 19.1 µM | [49] 13.4 µM | [58] 4.26 µM | [51] 27 µM | [25] 40.4 µM | [52] 30.9 µM | [27] 19.4 µM | [28] 3.68 µM | [30] 30.7 µM | [31] 18 µM | [32] 41.3 µM | [54] 28.6 µM | [33] 32.9 µM | [34] 89.7 µM | [35] 25.1 µM | [55] 50.4 µM | [36] 20.4 µM | [37] 21.2 µM | [38] 95.9 µM | [40] 38.3 µM | [56] 36.5 µM | [41] 40.5 µM | [42] 19.6 µM | [57] 10.4 µM
7.46 µM: [9]

COc1ccc(CC(CO)NC(=O)OCc2ccccc2)cc1Oc1ccc(CC(CO)NC(=O)OCc2ccccc2)cc1 (stereo not drawn)
29.4 µM: [9]
inactive: [43] 15.5 µM | [2] 11.7 µM | [45] 12.4 µM | [3] 20.4 µM | [4] 5.77 µM | [5] 23.1 µM | [6] 15.4 µM | [7] 3.85 µM | [8] 21.2 µM | [46] 15.1 µM | [11] 15.3 µM | [12] 18.3 µM | [13] 11.1 µM | [14] 11 µM | [16] 12.2 µM | [18] 10.7 µM | [20] 13.1 µM | [21] 15.3 µM | [47] 15.6 µM | [22] 3.43 µM | [23] 7.91 µM | [24] 16.5 µM | [49] 15.7 µM | [58] 1.47 µM | [51] 13.1 µM | [25] 27.9 µM | [52] 15 µM | [27] 11.2 µM | [28] 6.27 µM | [30] 7.82 µM | [31] 11.6 µM | [32] 18.3 µM | [54] 16.1 µM | [33] 5.09 µM | [34] 13.4 µM | [35] 16.7 µM | [55] 19 µM | [37] 26.7 µM | [38] 32.2 µM | [40] 19.4 µM | [56] 21.2 µM | [41] 17 µM | [42] 11.5 µM | [57] 14.3 µM
active: [36] 0.37 µM
